Test results from PubChem BioAssay (NCI).
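These data come from cells grown in 96-well plates and exposed to compound for 48 hours at five concentrations. Here, GI50 denotes the concentration required for 50% inhibition of growth. TGI marks complete inhibition of growth.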

Columns and labels:
Assay in all cases: NCI-60 cell line screen, 48 h
SW-620 colon = tested on: SW-620 colon
MDA-MB-231 breast = tested on: MDA-MB-231 breast
SK-MEL-2 melanoma = tested on: SK-MEL-2 melanoma
NCI-H23 lung = tested on: NCI-H23 lung
SK-MEL-5 melanoma = tested on: SK-MEL-5 melanoma
SF-268 CNS = tested on: SF-268 CNS
LOX IMVI melanoma = tested on: LOX IMVI melanoma
MDA-MB-435 = tested on: MDA-MB-435
M14 melanoma = tested on: M14 melanoma
EKVX NSCLC = tested on: EKVX NSCLC
HS 578T breast = tested on: HS 578T breast
A549 NSCLC = tested on: A549 NSCLC
SK-OV-3 ovarian = tested on: SK-OV-3 ovarian
SF-295 CNS = tested on: SF-295 CNS
MCF7 breast = tested on: MCF7 breast
CCRF-CEM leukemia = tested on: CCRF-CEM leukemia
U251 CNS = tested on: U251 CNS
HL-60(TB) leukemia = tested on: HL-60(TB) leukemia
HCC-2998 colon = tested on: HCC-2998 colon
786-0 renal = tested on: 786-0 renal
HCT-15 colon = tested on: HCT-15 colon
COLO 205 colon = tested on: COLO 205 colon
OVCAR-4 ovarian = tested on: OVCAR-4 ovarian
A498 renal = tested on: A498 renal
NCI-H460 lung = tested on: NCI-H460 lung
NCI-H522 lung = tested on: NCI-H522 lung
KM12 colon = tested on: KM12 colon
ACHN renal = tested on: ACHN renal
K-562 leukemia = tested on: K-562 leukemia
UACC-257 melanoma = tested on: UACC-257 melanoma
NCI/ADR-RES ovarian = tested on: NCI/ADR-RES ovarian
UACC-62 melanoma = tested on: UACC-62 melanoma
OVCAR-8 ovarian = tested on: OVCAR-8 ovarian
SR leukemia = tested on: SR leukemia
HT29 colon = tested on: HT29 colon
DU-145 prostate = tested on: DU-145 prostate
HOP-92 NSCLC = tested on: HOP-92 NSCLC
HOP-62 NSCLC = tested on: HOP-62 NSCLC
MALME-3M melanoma = tested on: MALME-3M melanoma
UO-31 renal = tested on: UO-31 renal
MOLT-4 leukemia = tested on: MOLT-4 leukemia
BT-549 breast = tested on: BT-549 breast
TK-10 renal = tested on: TK-10 renal
SNB-19 CNS = tested on: SNB-19 CNS
OVCAR-5 ovarian = tested on: OVCAR-5 ovarian
SF-539 CNS = tested on: SF-539 CNS
NCI-H226 lung = tested on: NCI-H226 lung
RXF 393 renal = tested on: RXF 393 renal
PC-3 prostate = tested on: PC-3 prostate
IGROV1 ovarian = tested on: IGROV1 ovarian
SN12C renal = tested on: SN12C renal
SNB-75 CNS = tested on: SNB-75 CNS
SK-MEL-28 melanoma = tested on: SK-MEL-28 melanoma
CAKI-1 renal = tested on: CAKI-1 renal

CCCCCc1ccc(S(=O)(=O)Nc2cccc(-c3csc(NCCN4CCN(C)CC4)n3)c2)cc1
GI50 (SW-620 colon): 1660 nM | TGI (SW-620 colon): 3120 nM | GI50 (MDA-MB-231 breast): 1630 nM | TGI (MDA-MB-231 breast): 3300 nM | GI50 (SK-MEL-2 melanoma): 1760 nM | TGI (SK-MEL-2 melanoma): 3330 nM | GI50 (NCI-H23 lung): 1810 nM | TGI (NCI-H23 lung): 3620 nM | GI50 (SK-MEL-5 melanoma): 1780 nM | TGI (SK-MEL-5 melanoma): 3190 nM | GI50 (SF-268 CNS): 1760 nM | TGI (SF-268 CNS): 3630 nM | GI50 (LOX IMVI melanoma): 1690 nM | TGI (LOX IMVI melanoma): 3130 nM | GI50 (MDA-MB-435): 1700 nM | TGI (MDA-MB-435): 3300 nM | GI50 (M14 melanoma): 1770 nM | TGI (M14 melanoma): 3420 nM | GI50 (EKVX NSCLC): 1670 nM | TGI (EKVX NSCLC): 3610 nM | GI50 (HS 578T breast): 1830 nM | TGI (HS 578T breast): 4220 nM | GI50 (A549 NSCLC): 1720 nM | TGI (A549 NSCLC): 3300 nM | GI50 (SK-OV-3 ovarian): 1750 nM | TGI (SK-OV-3 ovarian): 3350 nM | GI50 (SF-295 CNS): 1860 nM | TGI (SF-295 CNS): 3540 nM | GI50 (MCF7 breast): 1690 nM | TGI (MCF7 breast): 3330 nM | GI50 (CCRF-CEM leukemia): 2590 nM | TGI (CCRF-CEM leukemia): 9630 nM | GI50 (U251 CNS): 1700 nM | TGI (U251 CNS): 3230 nM | GI50 (HL-60(TB) leukemia): 2310 nM | TGI (HL-60(TB) leukemia): 5340 nM | GI50 (HCC-2998 colon): 1750 nM | TGI (HCC-2998 colon): 3240 nM | GI50 (786-0 renal): 1670 nM | TGI (786-0 renal): 3080 nM | GI50 (HCT-15 colon): 1680 nM | TGI (HCT-15 colon): 3310 nM | GI50 (COLO 205 colon): 1640 nM | TGI (COLO 205 colon): 3160 nM | GI50 (OVCAR-4 ovarian): 2020 nM | TGI (OVCAR-4 ovarian): 5180 nM | GI50 (A498 renal): 1530 nM | TGI (A498 renal): 3120 nM | GI50 (NCI-H460 lung): 1780 nM | TGI (NCI-H460 lung): 3290 nM | GI50 (NCI-H522 lung): 1800 nM | TGI (NCI-H522 lung): 3430 nM | GI50 (KM12 colon): 1720 nM | TGI (KM12 colon): 3220 nM | GI50 (ACHN renal): 1750 nM | TGI (ACHN renal): 3240 nM | GI50 (K-562 leukemia): 3020 nM | TGI (K-562 leukemia): > 100000 nM | GI50 (UACC-257 melanoma): 1730 nM | TGI (UACC-257 melanoma): 3270 nM | GI50 (NCI/ADR-RES ovarian): 1840 nM | TGI (NCI/ADR-RES ovarian): 4250 nM | GI50 (UACC-62 melanoma): 1820 nM | TGI (UACC-62 melanoma): 3470 nM | GI50 (OVCAR-8 ovarian): 1840 nM | TGI (OVCAR-8 ovarian): 3500 nM | GI50 (SR leukemia): 2470 nM | TGI (SR leukemia): > 100000 nM | GI50 (HT29 colon): 1900 nM | TGI (HT29 colon): 3710 nM | GI50 (DU-145 prostate): 1960 nM | TGI (DU-145 prostate): 3920 nM | GI50 (HOP-92 NSCLC): 1280 nM | TGI (HOP-92 NSCLC): 2730 nM | GI50 (HOP-62 NSCLC): 1730 nM | TGI (HOP-62 NSCLC): 3320 nM | GI50 (MALME-3M melanoma): 1540 nM | TGI (MALME-3M melanoma): 2990 nM | GI50 (UO-31 renal): 1420 nM | TGI (UO-31 renal): 2940 nM | GI50 (MOLT-4 leukemia): 3360 nM | TGI (MOLT-4 leukemia): 14600 nM | GI50 (BT-549 breast): 1560 nM | TGI (BT-549 breast): 2970 nM | GI50 (TK-10 renal): 1800 nM | TGI (TK-10 renal): 3610 nM | GI50 (SNB-19 CNS): 1960 nM | TGI (SNB-19 CNS): 4050 nM | GI50 (OVCAR-5 ovarian): 1890 nM | TGI (OVCAR-5 ovarian): 4010 nM | GI50 (SF-539 CNS): 1700 nM | TGI (SF-539 CNS): 3110 nM | GI50 (NCI-H226 lung): 1850 nM | TGI (NCI-H226 lung): 3930 nM | GI50 (RXF 393 renal): 1410 nM | TGI (RXF 393 renal): 2900 nM | GI50 (PC-3 prostate): 1860 nM | TGI (PC-3 prostate): 4420 nM | GI50 (IGROV1 ovarian): 1630 nM | TGI (IGROV1 ovarian): 3180 nM | GI50 (SN12C renal): 2010 nM | TGI (SN12C renal): 4480 nM | GI50 (SNB-75 CNS): 1390 nM | TGI (SNB-75 CNS): 2890 nM | GI50 (SK-MEL-28 melanoma): 1870 nM | TGI (SK-MEL-28 melanoma): 3360 nM | GI50 (CAKI-1 renal): 1520 nM | TGI (CAKI-1 renal): 3190 nM
